Holding throughout (assay): biochemical
In assay [1] the target is T1, VIM-2 (Pseudomonas aeruginosa, UniProt Q5U7L7). On the procedure: (§1) The pET24a-VIM-2 plasmid was transformed into competent BL21 (DE3) E. coli cells. The cells were plated onto an LB-agar plate with kanamycin (25 μg/mL) and incubated overnight at 37° C. A single colony was used to inoculate 50 mL of LB, containing 25 μg/mL kanamycin, and the culture was shaken overnight at 37° C. From the overnight culture, 10 mL were transferred to 4×IL LB medium containing 25 μg/mL kanamycin. The cultures were grown at 37° C. until an optical density (OD600 nm) of 0.6-0.8 was reached, at which point protein production was induced with IPTG (0.5 mM) and ZnCl2 (100 μM). The temperature was reduced to 20° C., and the cells were shaken for an additional 18 h. The cultures were harvested by centrifugation (8 Kxg) for 10 min at 4° C. The resulting pellets were re-suspended in 25 mL of 50 mM HEPES, pH 7.5, containing 500 mM NaCl (buffer B). The cells were lysed with three passes through a French Press. The lysate was centrifuged (15 Kxg) for 30 min at 4° C. The supernatant was dialyzed against 2 L of 50 mM HEPES, pH 7.5 (buffer A), for 4 h. Buffer A was used to equilibrate a 25 mL Q-Sepharose column using an FPLC. The sample was loaded onto the column, and proteins were eluted with a linear gradient 0-500 mM NaCl with buffer B. Fractions containing VIM-2, determined by SDS-PAGE, were pooled and concentrated to 2-3 mL in an Amicon ultraconcentrator equipped YM-10 membrane. Further purification was conducted with a Sephacryl S-200 gel filtration column using 50 mM HEPES, pH 7.5, containing 150 mM NaCl. Fractions containing pure VIM-2 were pooled, and metal analysis was performed.
(§2) To identify potential MBL inhibitors, the relative change in the formation of hydrolyzed nitrocefin between treated and untreated MBL was determined as percentage inhibition. 5 nM of each BML was pre-incubated for 10 mins with 50 μM of each compound, followed by the addition of 10 μM nitrocefin.
(§3) Each MBL was incubated with 50 μM of each compound, followed by the addition of nitrocefin. The relative change in absorbance is reported as percentage inhibition.

A further assay has as its target NDM-1 (Klebsiella pneumoniae, UniProt C7C422). How it is done:
BL21 (DE3) E. coli cells containing the pET26b-ndm-1 plasmid were used to inoculate a 50 mL LB starter culture containing kanamycin (25 μg/mL). The culture was grown overnight at 37° C. The starter culture was then used to inoculate 4×1 L LB containing kanamycin (25 μg/mL). These flasks were incubated at 37° C. until culture reached an optical density of (OD600) of 0.6 to 0.8. The incubator was then set to 22° C. and the cultures were shaken for 30 min to allow them to cool. ZnCl2 ([…]) and IPTG (0.5 mM) were then added to the cultures and they were grown for 18 h at 22° C. The cells were then harvested using centrifugation (8000×g) for 10 min. The pellet was resuspended with 25 mL 50 mM HEPES, pH 7.5 containing 500 mM NaCl (Buffer B). Lysis was performed with three passes through a French Press. The lysate was centrifuged for 30 min (15,000×g) at 4° C. The supernatant was then dialyzed versus 2 L 50 mM HEPES, pH 7.5 (Buffer C) for 4 h. An FPLC was used to equilibrate a Q-Sepharose column using buffer C using a flowrate of 2.0 mL/min for 1.5 h. The lysate was then loaded onto the column and eluted with a linear NaCl gradient from 0-500 mM. Fractions containing NDM-1 were identified with SDS-PAGE. These fractions were pooled and concentrated to 2-3 mL in an Amicon ultracentrifugation concentrating unit with a YM-10 membrane. The resulting protein mixture was then loaded onto a Sephacryl S-200 gel filtration column run with 50 mM HEPES, pH 7.5 containing 150 mM NaCl (Buffer A). SDS-PAGE was used to identify fractions containing pure protein.
as §2, §3

The target in assay [2] is T1, VIM-2. The settings on record: for IC50: 5 nM MBL, 10 μM nitrocefin, read-out: VIM-2 IC50; for Ki: nitrocefin substrate, competitive-inhibition fit, read-out: VIM-2 Ki. On the procedure: as §1, with “Further purification was conducted with a Sephacryl S-200 gel filtration column using 50 mM HEPES, pH 7.5, containing 150 mM NaCl.” left out
The enzyme inhibition constant (Ki) was derived from initial-velocity measurements by nonlinear regression using competitive-inhibition enzyme kinetics using Graphpad Prism 6.

Setting [3] is: 50 μM compound, 5 nM MBL, 10 μM nitrocefin, 30 mins, read-out: VIM-2 percentage inhibition.
The mark [4] stands for this setting: 50 μM compound, 5 nM MBL, 10 μM nitrocefin, 30 mins, read-out: NDM-1 percentage inhibition.
Where [5] appears, read: read-out: VIM-2 percentage inhibition.
Setting [6] is: read-out: NDM-1 percentage inhibition, 50 μM compound, 5 nM MBL, 10 μM nitrocefin, 30 mins.
The mark [7] stands for this setting: 50 μM compound, 5 nM MBL, 10 μM nitrocefin, 30 mins.

Where two headings read alike, the source gives them in different places.

The term inhibition denotes the share of the control response that was lost under treatment. The term IC50 denotes the concentration that gives 50% inhibition. As usually defined, the Ki is the equilibrium dissociation constant of an inhibitor or competing ligand from its target.

Sequence of NDM-1 (C7C422 whole entry, looked up, species assumed): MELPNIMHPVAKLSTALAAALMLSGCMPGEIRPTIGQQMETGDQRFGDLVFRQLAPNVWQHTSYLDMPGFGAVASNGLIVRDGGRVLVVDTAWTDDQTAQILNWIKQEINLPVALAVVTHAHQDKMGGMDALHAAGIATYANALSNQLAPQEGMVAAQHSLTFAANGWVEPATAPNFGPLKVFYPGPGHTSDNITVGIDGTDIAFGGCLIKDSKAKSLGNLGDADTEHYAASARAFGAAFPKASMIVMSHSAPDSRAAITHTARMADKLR

As to `CCOC(=O)CS` [Compound 2], the inhibition at 50 µM on VIM-2 [1] (setting [3]) turned out to be 16%; on NDM-1 (setting [4]), 55%.

For `CC(S)C(=O)O` (stereo not shown) [Compound 3], the inhibition at 50 µM stood at 17% on VIM-2 [1] (setting [3]) and 50% on NDM-1 (setting [4]).

On to `O=C(O)CC(S)C(=O)O` (stereo not shown) [Compound 4], for which the results for the inhibition at 50 µM on VIM-2 [1] (setting [5]) and at NDM-1 (setting [6]) were 22% and 39%, respectively.

For the compound `Oc1ccnc(S)n1` [Compound 6], the results for the inhibition at 50 µM on VIM-2 [1] (setting [5]) and at NDM-1 (setting [6]) were 13% and 48%, respectively.

With `Nc1nc(S)ncc1C(=O)O` [Compound 7], the inhibition at 50 µM at VIM-2 [1] (setting [3]) amounted to 9%; at NDM-1 (setting [4]) it was 44%.

As to `Cc1nc(S)nc(O)c1CC(=O)O` [Compound 8], the inhibition at 50 µM at VIM-2 [1] (setting [3]) worked out at 18%; at NDM-1 (setting [4]), 63%.

For `Sc1nccc(-c2ccccn2)n1` [Compound 9], the figures for the inhibition at 50 µM at VIM-2 [1] (setting [3]) and on NDM-1 (setting [4]) were 29% and 43%, respectively.

On to `Sc1nccc(-c2cccs2)n1` [Compound 10], for which the inhibition at 50 µM was determined as 21% on VIM-2 [1] (setting [3]) and 8% at NDM-1 (setting [4]).

For `Cc1cc(C(=O)O)nc2[nH]c(=S)[nH]c(=O)c12` [Compound 11], the values for the inhibition at 50 µM at VIM-2 [1] (setting [3]) and on NDM-1 (setting [4]) were 20% and 50%, respectively.

Turning to `CC(=O)c1ccc(O)c(O)c1O` [Compound 12], the inhibition at 50 µM at VIM-2 [1] (setting [3]) amounted to 22%; at NDM-1 (setting [4]), 18%.

Regarding `O=C(O)c1c(O)cccc1O` [Compound 14], the inhibition at 50 µM on VIM-2 [1] (setting [3]) was 4%; on NDM-1 (setting [4]), 51%.

In the case of `O=C(CCCCCCC(=O)Nc1ccccc1)NO` [Compound 15, SAHA, reference compound], on VIM-2 [1] (setting [3]), the inhibition at 50 µM is 18%.

Regarding `O=C(NO)c1n[nH]c(Cl)n1` [Compound 16], the inhibition at 50 µM at VIM-2 [1] (setting [3]) is 8%; at NDM-1 (setting [4]), 49%.

For `O=C1c2ccccc2C(=O)N1O` [Compound 18], the results for the inhibition at 50 µM at VIM-2 [1] (setting [3]) and at NDM-1 (setting [4]) were 18% and 30%, respectively.

As for `Cc1nc2ccccc2c(=O)n1O` [Compound 19], the figures for the inhibition at 50 µM at VIM-2 [1] (setting [3]) and on NDM-1 (setting [4]) were 22% and 46%, respectively.

As for `Cc1cc(C)n(-c2nc3ccccc3c(=O)n2O)n1` [Compound 20], the inhibition at 50 µM on VIM-2 [1] (setting [3]) was found to be 16%.

With `O=c1c2ccccc2[nH]c(=S)n1O` [Compound 21], the inhibition at 50 µM at VIM-2 [1] (setting [3]) came out at 27%.

As to `O=c1c(-c2ccco2)[n+]([O-])c2ccccc2n1O` [Compound 22], the inhibition at 50 µM on VIM-2 [1] (setting [3]) was found to be 9%; on NDM-1 (setting [4]), 12%.

As for `O=c1c(-c2cccs2)[n+]([O-])c2ccccc2n1O` [Compound 23], the inhibition at 50 µM stood at 25% on VIM-2 [1] (setting [3]) and 51% on NDM-1 (setting [4]).

Take `O=C(O)c1cccc(C(=O)O)n1` [Compound 24]: the results for the inhibition at 50 µM on VIM-2 [1] (setting [5]) and at NDM-1 (setting [6]) were 15% and over 50%, respectively.

As for `O=C(O)c1cc(O)cc(C(=O)O)n1` [Compound 25], the inhibition at 50 µM on VIM-2 [1] (setting [5]) is 27%.

As for `CC(C)Cc1cc(C(=O)O)nc(O)n1` [Compound 26], the inhibition at 50 µM was determined as 5% on VIM-2 [1] (setting [3]) and 58% on NDM-1 (setting [4]).

As for `Cc1cc(C(=O)O)nc(O)n1` [Compound 27], the inhibition at 50 µM on VIM-2 [1] (setting [3]) is 17%; at NDM-1 (setting [4]), 54%.

Regarding `Cc1ccc(O)c(CO)n1` [Compound 28], the inhibition at 50 µM on VIM-2 [1] (setting [3]) is 25%; on NDM-1 (setting [4]), 53%.

Take `CC(C)c1cc(C(=O)O)nc2[nH][nH]c(=O)c12` [Compound 29]: the inhibition at 50 µM at VIM-2 [1] (setting [3]) came out at 18%.

Take `Cc1cc(C(=O)O)nc2[nH][nH]c(=O)c12` [Compound 30]: the inhibition at 50 µM was 21% on VIM-2 [1] (setting [3]) and 66% at NDM-1 (setting [4]).

`Oc1ccc2ccccc2n1` [Compound 32] yielded a VIM-2 percentage inhibition on VIM-2 [1] (setting [7]) of 9%. Besides, the NDM-1 percentage inhibition at NDM-1 (setting [7]) worked out at 0%.

`Oc1cnc2ccccc2c1` [Compound 33, 3-hydroxyquinoline]: the inhibition at 50 µM turned out to be 95% at VIM-2 [1] (read-out: VIM-2 percentage inhibition, 50 μM compound, 5 nM MBL, 10 μM nitrocefin, 30 mins) and 33% at NDM-1 (setting [6]).

Turning to `Oc1ccnc2ccccc12` [Compound 34], at VIM-2 [1] (setting [7]), the VIM-2 percentage inhibition stood at 9%. This compound also returned an NDM-1 percentage inhibition at NDM-1 (setting [7]) of 1%.

`Oc1cccc2ncccc12` [Compound 35] returned a VIM-2 percentage inhibition at VIM-2 [1] (setting [7]) of 6%. The NDM-1 percentage inhibition at NDM-1 (setting [7]) is 6%.

`Oc1ccc2ncccc2c1` [Compound 36] had a VIM-2 percentage inhibition at VIM-2 [1] (setting [7]) of 7%. Besides, the NDM-1 percentage inhibition at NDM-1 (setting [7]) was 1%.

`Oc1ccc2cccnc2c1` [Compound 37] displayed a VIM-2 percentage inhibition at VIM-2 [1] (setting [7]) of 3%. In addition, the NDM-1 percentage inhibition on NDM-1 (setting [7]) is reported as 8%.

`Nc1cccc2cccnc12` [Compound 38] displayed a VIM-2 percentage inhibition at VIM-2 [1] (setting [7]) of 43%. The NDM-1 percentage inhibition on NDM-1 (setting [7]) amounted to 3%.

In turn, `[O-][n+]1cccc2cccc(O)c21` [Compound 39] displayed a VIM-2 percentage inhibition at VIM-2 [1] (setting [7]) of 27%. Moreover, the NDM-1 percentage inhibition on NDM-1 (setting [7]) is given as 7%.

`Cc1ccc2cccc(O)c2n1` [Compound 40] gave a VIM-2 percentage inhibition on VIM-2 [1] (setting [7]) of 77%. This compound also came in with an NDM-1 percentage inhibition on NDM-1 (setting [7]) of 9%.

For the compound `Nc1ccc(O)c2ncccc12` [Compound 42], the VIM-2 percentage inhibition at VIM-2 [1] (setting [7]) worked out at 96%. In addition, at VIM-2 [2], the IC50 stood at 3800 nM and the Ki was found to be 880 nM.

On VIM-2 [1] (setting [7]), `O=C(O)c1cnc2c(O)cccc2c1` [Compound 43] displayed a VIM-2 percentage inhibition of 91%. Moreover, at VIM-2 [2], the IC50 was 1600 nM and the Ki is 530 nM.

As for `O=C(O)c1ccnc2c(O)cccc12` [Compound 44], at VIM-2 [1] (setting [7]), the VIM-2 percentage inhibition is listed as 92%.

Regarding `Oc1ccc(Cl)c2cccnc12` [Compound 46], the VIM-2 percentage inhibition on VIM-2 [1] (setting [7]) was determined as 98%. Also, on VIM-2 [2], the IC50 came out at 4100 nM and the Ki came to 960 nM.

The compound `Oc1c(Cl)cc(Cl)c2cccnc12` [Compound 47] had a VIM-2 percentage inhibition on VIM-2 [1] (setting [7]) of 96%. In addition, at VIM-2 [2], the IC50 was 4100 nM and the inhibition constant (Ki) came to 1100 nM.

In turn, `Oc1c(Br)cc(Br)c2cccnc12` [Compound 49] returned a VIM-2 percentage inhibition at VIM-2 [1] (setting [7]) of 92%.
